From US20140073634A1 (Institute For Applied Cancer Science/The University of …, priority 2012, published 2014)

test system: 293T-HRE-GFP-luc cells; experiment: Cell-based reporter assay for IC50 determinations (HRE-luciferase, hypoxia); details: 6 h, 6 hrs hypoxia (1% O2), luminescence
How it was run: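 293T-HRE-GFP-luc cells were pre-incubated with serially diluted compounds for 30 min under normoxia, then held 6 hrs in hypoxia (1% O2, 37° C). HRE-driven luciferase read by Steadylite Plus luminescence; IC50 from four-parameter logistic fit.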

| SMILES | IC50 |
| --- | --- |
| CN1CCN(c2cccc(Cn3cc(-c4noc(-c5ccc(OC(F)F)cc5)n4)ccc3=O)c2)CC1 [Example 189, 5-{5-[4-(difluoromethoxy)phenyl]-1,2,4-oxadiazol-3-yl}-1-{[3-(4-methylpiperazin-1-yl)phenyl]methyl}-1,2-dihydropyridin-2-one] | < 0.1 µM |
| CN(C)C(=O)/C=C/c1cccc(Cn2cc(-c3nc(-c4ccc(OC(F)(F)F)cc4)no3)ccc2=O)c1 [Example 40, (2E)-N,N-dimethyl-3-{3-[(2-oxo-5-{3-[4-(trifluoromethoxy)phenyl]-1,2,4-oxadiazol-5-yl}-1,2-dihydropyridin-1-yl)methyl]phenyl}prop-2-enamide] | < 0.1 µM |
| O=c1ccc(-c2nc(-c3ccc(OC(F)(F)F)cc3)no2)cn1Cc1cccc(OCCO)c1 [Example 147, 1-{[3-(2-hydroxyethoxy)phenyl]methyl}-5-{3-[4-(trifluoromethoxy)phenyl]-1,2,4-oxadiazol-5-yl}-1,2-dihydropyridin-2-one] | < 0.1 µM |
| N#Cc1cccc(Cn2nc(-c3nc(-c4ccc(OC(F)(F)F)cc4)no3)ccc2=O)c1 [Example 120, 3-((6-oxo-3-(3-(4-(trifluoromethoxy)phenyl)-1,2,4-oxadiazol-5-yl)pyridazin-1(6H)-yl)methyl)benzonitrile] | < 0.1 µM |
| CN(C)C(=O)CCc1cccc(Cn2cc(-c3nc(-c4ccc(OC(F)(F)F)cc4)no3)ccc2=O)c1 [Example 49, N,N-Dimethyl-3-{3-[(2-oxo-5-{3-[4-(trifluoromethoxy)phenyl]-1,2,4-oxadiazol-5-yl}-1,2-dihydropyridin-1-yl)methyl]phenyl}propanamide] | < 0.1 µM |
| CNS(=O)(=O)c1cccc(Cn2cc(-c3nc(-c4ccc(OC(F)(F)F)cc4)no3)ccc2=O)c1 [Example 165, N-methyl-3-[(2-oxo-5-{3-[4-(trifluoromethoxy)phenyl]-1,2,4-oxadiazol-5-yl}-1,2-dihydropyridin-1-yl)methyl]benzene-1-sulfonamide] | < 0.1 µM |
| O=c1ccc(-c2nc(-c3ccc(OC(F)(F)F)cc3)no2)nn1Cc1cccc(O)c1 [Example 174, 2-[(3-hydroxyphenyl)methyl]-6-{3-[4-(trifluoromethoxy)phenyl]-1,2,4-oxadiazol-5-yl}-2,3-dihydropyridazin-3-one] | 0.1 to 1 µM |
| CS(=O)(=O)CCCOc1cccc(Cn2cc(-c3nnc(-c4ccc(OC(F)F)cc4)o3)ccc2=O)c1 [Example 262, 5-{5-[4-(difluoromethoxy)phenyl]-1,3,4-oxadiazol-2-yl}-1-{[3-(3-methanesulfonylpropoxy)phenyl]methyl}-1,2-dihydropyridin-2-one] | < 0.1 µM |
| CNC(=O)c1cccc(Cn2cc(-c3nc(-c4ccc(OC(F)(F)F)cc4)no3)ccc2=O)c1 [Example 133, N-methyl-3-[(2-oxo-5-{3-[4-(trifluoromethoxy)phenyl]-1,2,4-oxadiazol-5-yl}-1,2-dihydropyridin-1-yl)methyl]benzamide] | < 0.1 µM |
| CN1CCN(c2cc(Cn3cc(-c4nc(-c5ccc(OC(F)(F)F)cc5)no4)ccc3=O)ccc2F)CC1 [Example 137, 1-{[4-fluoro-3-(4-methylpiperazin-1-yl)phenyl]methyl}-5-{3-[4-(trifluoromethoxy)phenyl]-1,2,4-oxadiazol-5-yl}-1,2-dihydropyridin-2-one] | < 0.1 µM |
| COCCOc1cccc(Cn2cc(-c3noc(-c4ccc(C(C)(C)C#N)cc4)n3)ccc2=O)c1 [Example 68, 2-(4-(3-(1-(3-(2-Methoxyethoxy)benzyl)-6-oxo-1,6-dihydropyridin-3-yl)-1,2,4-oxadiazol-5-yl)phenyl)-2-methylpropanenitrile] | 0.1 to 1 µM |
| COCCOc1cccc(Cn2cc(-c3noc(-c4cnc(NC(C)(C)C)nc4)n3)ccc2=O)c1 [Example 249, 5-{5-[2-(tert-butylamino)pyrimidin-5-yl]-1,2,4-oxadiazol-3-yl}-1-{[3-(2-methoxyethoxy)phenyl]methyl}-1,2-dihydropyridin-2-one] | < 0.1 µM |
| COC(=O)c1cc(Cn2nc(-c3nc(-c4ccc(OC(F)(F)F)cc4)no3)ccc2=O)ccc1F [Example 126, methyl 2-fluoro-5-((6-oxo-3-(3-(4-(trifluoromethoxy)phenyl)-1,2,4-oxadiazol-5-yl)pyridazin-1(6H)-yl)methyl)benzoate] | < 0.1 µM |
| O=c1ccc(-c2cc(-c3ccc(OC(F)(F)F)cc3)no2)cn1Cc1cccc(NC2CCCS(=O)(=O)C2)c1 (centres unmarked) [Example 254, 1-(3-((1,1-dioxidotetrahydro-2H-thiopyran-3-yl)amino)benzyl)-5-(3-(4-(trifluoromethoxy)phenyl)isoxazol-5-yl)pyridin-2(1H)-one] | < 0.1 µM |
| NC(=O)c1cccc(Cn2nc(-c3nc(-c4ccc(OC(F)(F)F)cc4)no3)ccc2=O)c1 [Example 132, 3-[(6-oxo-3-{3-[4-(trifluoromethoxy)phenyl]-1,2,4-oxadiazol-5-yl}-1,6-dihydropyridazin-1-yl)methyl]benzamide] | < 0.1 µM |
| N#CC1CCN(c2cc(Cn3cc(-c4nc(-c5ccc(OC(F)(F)F)cc5)no4)ccc3=O)ccn2)CC1 [Example 153, 1-{4-[(2-oxo-5-{3-[4-(trifluoromethoxy)phenyl]-1,2,4-oxadiazol-5-yl}-1,2-dihydropyridin-1-yl)methyl]pyridin-2-yl}piperidine-4-carbonitrile] | < 0.1 µM |
| Cc1ccc(Cn2cc(-c3nc(-c4ccc(OC(F)(F)F)cc4)no3)ccc2=O)cc1 [Example 26, 1-(4-Methylbenzyl)-5-(3-(4-(trifluoromethoxy)phenyl)-1,2,4-oxadiazol-5-yl)pyridin-2(1H)-one] | < 0.1 µM |
| O=c1ccc(-c2nc(-c3ccc(OC(F)(F)F)cc3)no2)nn1Cc1cccc(OCCO)c1 [Example 179, 2-{[3-(2-hydroxyethoxy)phenyl]methyl}-6-{3-[4-(trifluoromethoxy)phenyl]-1,2,4-oxadiazol-5-yl}-2,3-dihydropyridazin-3-one] | < 0.1 µM |
| O=c1ccc(-c2nc(-c3ccc(OC(F)(F)F)cc3)no2)cn1Cc1cccc(CS)c1 [Example 45, 1-{[3-(Sulfanylmethyl)phenyl]methyl}-5-{3-[4-(trifluoromethoxy)phenyl]-1,2,4-oxadiazol-5-yl}-1,2-dihydropyridin-2-one] | < 0.1 µM |
| COCCOc1cccc(Cn2cc(-c3noc(-c4cnc(N5CCS(=O)(=O)CC5)nc4)n3)ccc2=O)c1 [Example 250, 5-(5-(2-(1,1-dioxidothiomorpholino)pyrimidin-5-yl)-1,2,4-oxadiazol-3-yl)-1-(3-(2-methoxyethoxy)benzyl)pyridin-2(1H)-one] | 0.1 to 1 µM |
| COCCOc1cccc(Cn2cc(-c3noc(-c4ccc5[nH]ccc5c4)n3)ccc2=O)c1 [Example 225, 5-[5-(1H-indol-5-yl)-1,2,4-oxadiazol-3-yl]-1-{[3-(2-methoxyethoxy)phenyl]methyl}-1,2-dihydropyridin-2-one] | 0.1 to 1 µM |
| CC(C)c1ccc(-c2nc(-c3ccc(=O)n(Cc4cccc(OCCCS(C)(=O)=O)c4)c3)no2)cc1 [Example 210, 1-{[3-(3-methanesulfonylpropoxy)phenyl]methyl}-5-{5-[4-(propan-2-yl)phenyl]-1,2,4-oxadiazol-3-yl}-1,2-dihydropyridin-2-one] | < 0.1 µM |

same assay, conditions: 6 hrs hypoxia (1% O2), luminescence

| SMILES | IC50 |
| --- | --- |
| CC(C)(C)[Si](C)(C)OCCOc1cccc(Cn2nc(-c3nc(-c4ccc(OC(F)(F)F)cc4)no3)ccc2=O)c1 [Example 178, 2-[(3-{2-[(tert-butyldimethylsilyl)oxy]ethoxy}phenyl)methyl]-6-{3-[4-(trifluoromethoxy)phenyl]-1,2,4-oxadiazol-5-yl}-2,3-dihydropyridazin-3-one] | 0.1 to 1 µM |
